Test results from patent publication US10221173B2, “Chemical compounds” (AstraZeneca AB, priority 2017, dated 2019).
Converted amounts (≈) assume the structure as drawn.

Key:
[1] = biological target: recombinant human Estrogen Receptor alpha ligand binding domain (ER alpha-LBD (GST)) (Homo sapiens (Human), UniProt P03372); assay: ERα binding assay (LanthaScreen TR-FRET competition)
[2] = biological target: hERG potassium channel (Homo sapiens (Human), UniProt Q12809)
Description: The assay was conducted as follows with all reagents used at room temperature unless otherwise stated.
All compounds were acoustically dispensed in quadruplicate using a Labcyte Echo.
Calculation of results is performed using APC package within Genedata. For the routine normalization of well data with Neutral and Inhibitor control well groups as reference, GeneData Assay Analyzer uses the following equation to normalize the signal values to the desired signal range:
[formula] x is the measured raw signal value of a well is the median of the measured signal values for the Central Reference (Neutral) wells on a plate is the median of the measured signal values for the Scale Reference (Inhibitor) wells on a plate CR is the desired median normalized value for the Central Reference (Neutral) SR is the desired median normalized value for the Scale Reference (Inhibitor)

[3] = Human plasma protein binding (equilibrium dialysis); type: in vitro ADME
Description: The automated equilibrium dialysis assay in human plasma uses the RED (Rapid Equilibrium Dialysis) Device and sample handling. The assay generally runs over two to three days including delivery of results. After dialysis for 18 hours, plasma and buffer samples are prepared for analysis by liquid chromatography and mass spectrometry. Samples are generally tested in singlicates and quantified by LC/MSMS by using a 7-point calibration curve in plasma. The compounds are pooled together in plasma pools up to 10 compounds. Three reference compounds are used in each run, Propranolol, Metoprolol and Warfarin. Warfarin is used as a control in each pool and Propranolol and Metoprolol are placed randomly in each run. An in-house Excel macro is used for preparation of files for the robot and the mass spectrometer and is also used for the calculations of fraction unbound (fu %) in plasma.

[4] = Log D (shake flask, 1-octanol/aqueous buffer); type: physicochemical
[5] = biological target: Estrogen Receptor (ERα) in MCF-7 cells (Homo sapiens (Human), UniProt P03372); assay: MCF-7 ER down-regulation assay (immuno-fluorescence); type: cell-based; conditions: for % downregulation (in brackets): maximum downregulation
Sequence of Estrogen Receptor (ERα) in MCF-7 cells (P03372 whole entry): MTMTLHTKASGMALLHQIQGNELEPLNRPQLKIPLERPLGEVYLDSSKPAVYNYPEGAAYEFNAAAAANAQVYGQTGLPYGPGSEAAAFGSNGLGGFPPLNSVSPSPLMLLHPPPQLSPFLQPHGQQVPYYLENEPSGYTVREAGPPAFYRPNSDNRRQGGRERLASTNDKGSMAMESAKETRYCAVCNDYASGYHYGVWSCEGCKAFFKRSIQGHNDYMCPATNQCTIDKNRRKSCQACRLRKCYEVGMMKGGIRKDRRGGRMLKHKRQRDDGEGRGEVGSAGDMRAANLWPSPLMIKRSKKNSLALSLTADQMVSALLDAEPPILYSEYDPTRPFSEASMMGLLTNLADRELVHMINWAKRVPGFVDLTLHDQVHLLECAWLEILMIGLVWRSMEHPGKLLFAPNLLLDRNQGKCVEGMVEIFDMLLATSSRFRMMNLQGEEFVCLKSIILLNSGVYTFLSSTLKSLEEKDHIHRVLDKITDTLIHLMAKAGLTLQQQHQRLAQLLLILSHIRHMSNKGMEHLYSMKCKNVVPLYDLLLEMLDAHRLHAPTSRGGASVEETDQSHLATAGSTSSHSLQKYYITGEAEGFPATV

[6] = Thermodynamic solubility (shake-flask); type: physicochemical; conditions: thermodynamic from solid, phosphate buffer pH 7.4, 24 hours
Description: The thermodynamic solubility of a research compound is measured under standard conditions. It is a shake-flask approach that uses 10 mM DMSO solutions which are supplied from the Compound Managements liquid store and is a high throughput method. The dried compounds are equilibrated in an aqueous phosphate buffer (pH 7.4) for 24 hours at 25° C., the portion with the dissolved compound is then separated from the remains. The solutions are analyzed and quantified using UPLC/MS/MS, QC-samples are incorporated in each assay-run to ensure the quality of the assay.

[7] = 1-octanol/aqueous buffer, pH 7.4, pH 7.4
[8] = aqueous phosphate buffer, 25 °C, pH 7.4, aqueous buffer

Sequence of recombinant human Estrogen Receptor alpha ligand binding domain (ER alpha-LBD (GST)) (P03372 307-554): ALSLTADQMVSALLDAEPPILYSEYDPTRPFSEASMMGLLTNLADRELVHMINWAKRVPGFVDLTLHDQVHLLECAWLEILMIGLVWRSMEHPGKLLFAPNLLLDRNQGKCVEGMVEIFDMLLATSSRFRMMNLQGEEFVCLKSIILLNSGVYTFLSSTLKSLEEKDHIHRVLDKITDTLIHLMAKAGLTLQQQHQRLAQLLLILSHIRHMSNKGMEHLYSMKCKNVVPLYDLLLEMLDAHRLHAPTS
Sequence of hERG potassium channel (Q12809 whole entry): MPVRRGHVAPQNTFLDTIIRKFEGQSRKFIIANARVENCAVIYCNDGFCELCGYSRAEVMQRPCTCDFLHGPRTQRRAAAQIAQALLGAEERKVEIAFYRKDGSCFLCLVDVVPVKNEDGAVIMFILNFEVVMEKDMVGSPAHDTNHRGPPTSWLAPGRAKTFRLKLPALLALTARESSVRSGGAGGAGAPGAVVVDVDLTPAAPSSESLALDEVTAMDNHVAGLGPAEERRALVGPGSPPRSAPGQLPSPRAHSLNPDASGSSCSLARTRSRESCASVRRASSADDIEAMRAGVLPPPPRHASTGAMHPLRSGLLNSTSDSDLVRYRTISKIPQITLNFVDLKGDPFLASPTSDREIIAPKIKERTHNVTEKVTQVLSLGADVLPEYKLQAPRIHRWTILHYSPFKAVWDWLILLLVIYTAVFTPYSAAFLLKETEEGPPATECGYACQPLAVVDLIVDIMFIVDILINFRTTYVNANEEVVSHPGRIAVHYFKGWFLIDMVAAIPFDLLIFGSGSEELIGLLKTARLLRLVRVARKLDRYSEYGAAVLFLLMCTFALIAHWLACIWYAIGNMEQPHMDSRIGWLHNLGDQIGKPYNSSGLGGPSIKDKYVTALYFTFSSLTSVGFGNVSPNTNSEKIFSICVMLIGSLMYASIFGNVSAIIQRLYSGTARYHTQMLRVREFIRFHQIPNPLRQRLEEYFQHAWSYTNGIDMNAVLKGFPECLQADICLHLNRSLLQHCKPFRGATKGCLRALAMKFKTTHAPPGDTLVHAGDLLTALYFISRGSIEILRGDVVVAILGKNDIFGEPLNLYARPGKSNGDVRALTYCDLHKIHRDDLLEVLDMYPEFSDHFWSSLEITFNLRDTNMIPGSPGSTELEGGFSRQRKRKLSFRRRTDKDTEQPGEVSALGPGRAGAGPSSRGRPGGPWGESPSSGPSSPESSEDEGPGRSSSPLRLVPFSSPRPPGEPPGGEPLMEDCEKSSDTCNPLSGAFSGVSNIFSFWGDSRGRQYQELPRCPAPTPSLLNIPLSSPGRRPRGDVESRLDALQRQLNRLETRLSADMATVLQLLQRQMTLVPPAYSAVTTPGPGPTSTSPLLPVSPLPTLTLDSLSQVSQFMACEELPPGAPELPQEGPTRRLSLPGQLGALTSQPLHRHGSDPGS

Row | SMILES | IC50 [1] [nM] | IC50 [2] [nM] | Human plasma protein binding (% free) [3] [% free] | logD [4, 7] | IC50 [5] [nM] | solubility at 24 h [6, 8] [µM] | % downregulation (in brackets) [5] | logD ([4]; pH 7.4) | solubility at 24 h ([6]; aqueous buffer, 25° C.) [µM]
1 | COc1c(F)cc(OCCNCCCF)cc1[C@@H]1c2[nH]c3ccccc3c2C[C@@H](C)N1CC(F)(F)F [Example 27, 3-fluoro-N-(2-(3-fluoro-4-methoxy-5-((1R,3R)-3-methyl-2-(2,2,2-trifluoroethyl)-2,3,4,9-tetrahydro-1H-pyrido[3,4-b]indol-1-yl)phenoxy)ethyl)propan-1-amine] | 2.7 | 4800 | 0.42 | 4.2 | 1.6 | 6 (≈ 3.07 µg/mL) | – | – | –
2 | COc1c(F)cc(OCCNCCCF)c(F)c1[C@@H]1c2[nH]c3ccccc3c2C[C@@H](C)N1CC(F)(F)F [Example 29, N-(2-(2,5-difluoro-4-methoxy-3-((1R,3R)-3-methyl-2-(2,2,2-trifluoroethyl)-2,3,4,9-tetrahydro-1H-pyrido[3,4-b]indol-1-yl)phenoxy)ethyl)-3-fluoropropan-1-amine] | 2 | 5100 | <3.2 | > 3.2 | 0.44 | 58 (≈ 30.7 µg/mL) | – | – | –
3 | C[C@@H]1Cc2c([nH]c3ccccc23)[C@@H](c2cc(OCCNCCCF)cc(F)c2F)N1CC(F)(F)F [Example 30, N-(2-(3,4-difluoro-5-((1R,3R)-3-methyl-2-(2,2,2-trifluoroethyl)-2,3,4,9-tetrahydro-1H-pyrido[3,4-b]indol-1-yl)phenoxy)ethyl)-3-fluoropropan-1-amine] | 2.1 | 2300 | 0.72 | 4.1 | 0.32 | 39 (≈ 19.5 µg/mL) | – | – | –
4 | C[C@@H]1Cc2c([nH]c3ccccc23)[C@@H](c2cc(F)cc(OCCNCCCF)c2F)N1CC(F)(F)F [Example 31, N-(2-(2,5-difluoro-3-((1R,3R)-3-methyl-2-(2,2,2-trifluoroethyl)-2,3,4,9-tetrahydro-1H-pyrido[3,4-b]indol-1-yl)phenoxy)ethyl)-3-fluoropropan-1-amine] | 5.4 | 11000 | 0.41 | 4.1 | 7.2 | 40 (≈ 20 µg/mL) | – | – | –
5 | C[C@@H]1Cc2c([nH]c3ccccc23)[C@@H](c2c(F)c(F)cc(OCCNCCCF)c2F)N1CC(F)(F)F [Example 32, 3-fluoro-N-(2-(2,4,5-trifluoro-3-((1R,3R)-3-methyl-2-(2,2,2-trifluoroethyl)-2,3,4,9-tetrahydro-1H-pyrido[3,4-b]indol-1-yl)phenoxy)ethyl)propan-1-amine] | 2.7 | 5800 | 0.52 | 4.1 | 0.38 | 55 (≈ 28.5 µg/mL) | – | – | –
6 | C[C@@H]1Cc2c([nH]c3ccccc23)[C@@H](c2cccc(OCCNCCCF)n2)N1CC(F)(F)F [Example 34, 3-fluoro-N-(2-((6-((1S,3R)-3-methyl-2-(2,2,2-trifluoroethyl)-2,3,4,9-tetrahydro-1H-pyrido[3,4-b]indol-1-yl)pyridin-2-yl)oxy)ethyl)propan-1-amine] | 190 | 3400 | 2.2 | 3.7 | – | 151 (≈ 70.1 µg/mL) | — (41%) | – | –
7 | COc1ncc(OCCNCCCF)cc1[C@@H]1c2[nH]c3ccccc3c2C[C@@H](C)N1CC(F)(F)F [Example 36, 3-fluoro-N-(2-((6-methoxy-5-((1R,3R)-3-methyl-2-(2,2,2-trifluoroethyl)-2,3,4,9-tetrahydro-1H-pyrido[3,4-b]indol-1-yl)pyridin-3-yl)oxy)ethyl)propan-1-amine] | 2.6 | 8700 | 2 | 3.5 | 0.35 | 183 (≈ 90.5 µg/mL) | – | – | –
8 | Cc1ncc(OCCNCCCF)cc1[C@@H]1c2[nH]c3ccccc3c2C[C@@H](C)N1CC(F)(F)F [Example 37, 3-fluoro-N-(2-((6-methyl-5-((1R,3R)-3-methyl-2-(2,2,2-trifluoroethyl)-2,3,4,9-tetrahydro-1H-pyrido[3,4-b]indol-1-yl)pyridin-3-yl)oxy)ethyl)propan-1-amine] | 12 | 3500 | 2.3 | 3.6 | 35 | 434 (≈ 208 µg/mL) | – | – | –
9 | COc1ncc(NCCNCCCF)cc1[C@@H]1c2[nH]c3ccccc3c2C[C@@H](C)N1CC(F)(F)F [Example 41, N1-(3-fluoropropyl)-N2-(6-methoxy-5-((1R,3R)-3-methyl-2-(2,2,2-trifluoroethyl)-2,3,4,9-tetrahydro-1H-pyrido[3,4-b]indol-1-yl)pyridin-3-yl)ethane-1,2-diamine] | 12 | 4900 | 1.8 | 2.9 | 6 | 242 (≈ 119 µg/mL) | – | – | –
10 | COc1ccc(NCCNCCCF)nc1[C@@H]1c2[nH]c3ccccc3c2C[C@@H](C)N1CC(F)(F)F [Example 43, N1-(3-fluoropropyl)-N2-(5-methoxy-6-((1S,3R)-3-methyl-2-(2,2,2-trifluoroethyl)-2,3,4,9-tetrahydro-1H-pyrido[3,4-b]indol-1-yl)pyridin-2-yl)ethane-1,2-diamine] | 82 | 3100 | 2.8 | 2.2 | 220 | 358 (≈ 177 µg/mL) | – | – | –
11 | COc1ccc(O[C@H](C)CNCCCF)cc1[C@@H]1c2[nH]c3ccccc3c2C[C@@H](C)N1CC(F)(F)CO [Example 47, 2,2-difluoro-3-((1R,3R)-1-(5-(((R)-1-((3-fluoropropyl)amino)propan-2-yl)oxy)-2-methoxyphenyl)-3-methyl-1,3,4,9-tetrahydro-2H-pyrido[3,4-b]indol-2-yl)propan-1-ol] | 2.5 | 3200 | 6.1 | 2.7 | 11 | 488 (≈ 254 µg/mL) | 81% | – | –
12 | COc1ccc(OCCNCCCF)cc1[C@@H]1c2[nH]c3ccccc3c2C[C@@H](C)N1C[C@H](C)C(=O)O [Example 53, (S)-3-((1R,3R)-1-(5-(2-((3-fluoropropyl)amino)ethoxy)-2-methoxyphenyl)-3-methyl-1,3,4,9-tetrahydro-2H-pyrido[3,4-b]indol-2-yl)-2-methylpropanoic acid] | 150 | > 40000 | 80 | 0.1 | – | > 1000 | — (40%) | – | –
13 | C[C@@H]1Cc2c([nH]c3ccccc23)[C@@H](c2c(Cl)ccc(OCCNCCCF)c2F)N1C[C@H](C)C(=O)O [Example 54, (S)-3-((1R,3R)-1-(6-chloro-2-fluoro-3-(2-((3-fluoropropyl)amino)ethoxy)phenyl)-3-methyl-1,3,4,9-tetrahydro-2H-pyrido[3,4-b]indol-2-yl)-2-methylpropanoic acid] | 5.9 | > 40000 | 18 | 0.9 | 1 | > 1000 | – | – | –
14 | Cc1ccc2[nH]c3c(c2c1)C[C@@H](C)N(CC(F)(F)CO)[C@@H]3c1c(F)cnc(OCCNCCCF)c1F [Example 66, 3-((1R,3R)-1-(3,5-difluoro-2-(2-((3-fluoropropyl)amino)ethoxy)pyridin-4-yl)-3,6-dimethyl-1,3,4,9-tetrahydro-2H-pyrido[3,4-b]indol-2-yl)-2,2-difluoropropan-1-ol] | 0.71 | 5400 | 1.3 | 3 | 0.34 | 441 (≈ 232 µg/mL) | – | – | –
15 | C[C@@H]1Cc2c([nH]c3ccc(F)cc23)[C@@H](c2c(F)cnc(OCCN(C)CCCF)c2F)N1CC(F)(F)CO [Example 67, 3-((1R,3R)-1-(3,5-difluoro-2-(2-((3-fluoropropyl)(methyl)amino)ethoxy)pyridin-4-yl)-6-fluoro-3-methyl-1,3,4,9-tetrahydro-2H-pyrido[3,4-b]indol-2-yl)-2,2-difluoropropan-1-ol] | 0.7 | 5700 | 1.6 | 4 | 0.099 | 80.6 (≈ 43.9 µg/mL) | – | – | –
16 | C[C@@H]1Cc2c([nH]c3ccccc23)[C@@H](c2cccc(OCCNCCCF)c2C(F)F)N1CC(F)(F)CO [Example 68, 3-((1R,3R)-1-(2-(difluoromethyl)-3-(2-((3-fluoropropyl)amino)ethoxy)phenyl)-3-methyl-1,3,4,9-tetrahydro-2H-pyrido[3,4-b]indol-2-yl)-2,2-difluoropropan-1-ol] | 0.69 | 2000 | 1.2 | 3.2 | 0.095 | 56.6 (≈ 29.7 µg/mL) | – | – | –
17 | C[C@@H]1Cc2c([nH]c3ccccc23)[C@@H](c2cc(OCCNCCCF)ccc2CO)N1CC(F)(F)F [Example 70, (4-(2-((3-fluoropropyl)amino)ethoxy)-2-((1R,3R)-3-methyl-2-(2,2,2-trifluoroethyl)-2,3,4,9-tetrahydro-1H-pyrido[3,4-b]indol-1-yl)phenyl)methanol] | 1300 | 6300 | 23 | 2.2 | 180 | 231 (≈ 114 µg/mL) | – | – | –
18 | COCc1ccc(OCCNCCCF)cc1[C@@H]1c2[nH]c3ccccc3c2C[C@@H](C)N1CC(F)(F)F [Example 71, 3-fluoro-N-(2-(4-(methoxymethyl)-3-((1R,3R)-3-methyl-2-(2,2,2-trifluoroethyl)-2,3,4,9-tetrahydro-1H-pyrido[3,4-b]indol-1-yl)phenoxy)ethyl)propan-1-amine] | 3.4 | 5800 | 0.44 | – | 2 | – | 90% | 3.8 | < 1.6
